# Laboratory results as given in patent publication US7157430B2, “(Substituted)acyl dipeptidyl inhibitors of the ICE/CED-3 family of cysteine proteases” (Idun Pharmaceuticals, Inc., priority 1998, dated 2007).
# What was measured:
# Type in all cases: biochemical
# Details in all cases: continuous assay 60 min, reaction initiated by adding enzyme
# mICE = biological target: T1, mICE (Mus musculus, UniProt P29452); assay: Dissociation constant Ki and irreversible rate constant k3 for irreversible inhibitors, ICE
# T1 sequence (P29452 123-296 limits assumed): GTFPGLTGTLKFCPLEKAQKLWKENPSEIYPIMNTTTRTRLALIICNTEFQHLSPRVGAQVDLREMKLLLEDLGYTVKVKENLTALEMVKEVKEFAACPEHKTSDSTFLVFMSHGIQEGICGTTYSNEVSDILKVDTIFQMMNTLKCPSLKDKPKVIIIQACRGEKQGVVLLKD
# T1 sequence (P29452 315-402 limits assumed): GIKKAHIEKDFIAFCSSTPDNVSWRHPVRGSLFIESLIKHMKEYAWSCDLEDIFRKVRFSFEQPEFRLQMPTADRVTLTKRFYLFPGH
# Excerpt: (§1) For the irreversible inhibition of a ICE/ced-3 Family Protease enzyme with a competitive irreversible inhibitor; using the model represented by the following formulas: […]
# (§2) The product formation at time t may be expressed as:
# (§3) [formula] where E, I, EI and E-I denote the active enzyme, inhibitor, non-covalent enzyme-inhibitor complex and covalent enzyme-inhibitor adduct, respectively. The Ki value is the overall dissociation constant of the reversible binding steps, and k3 is the irreversible rate constant. The [S] and Ks values are the substate concentration and dissociation constant of the substrate bound to the enzyme, respectively. [E]^T is the total enzyme concentration.
# (§4) The above equations were used to determine the Ki and k3 values of a given inhibitor bound to a ICE/ced-3 family protease. Thus, a continuous assay was run for sixty minutes at various concentrations of the inhibitor and the substrate. The assay was formulated essentially the same as described above for generating the data in Table 1, except that the reaction was initiated by adding the enzyme to the substrate-inhibitor mixture. The Ki and k3 values were obtained by simulating the product AMC formation as a function of time according to Equation 1.
# (§5) The reference compound for this assay was Cbz-ValAlaAsp-CH2F and the values are denoted in Table 2 as “Reference”. The Ki values in Table 2 are in micromolar (μM). The k3/Ki values are in moles^−1 seconds^−1 (M^−1s^−1).
# CPP32 = biological target: T2, CPP32 (Homo sapiens, UniProt P42574); assay: Dissociation constant Ki and irreversible rate constant k3 for irreversible inhibitors, CPP32
# T2 sequence (P42574 29-175 limits assumed): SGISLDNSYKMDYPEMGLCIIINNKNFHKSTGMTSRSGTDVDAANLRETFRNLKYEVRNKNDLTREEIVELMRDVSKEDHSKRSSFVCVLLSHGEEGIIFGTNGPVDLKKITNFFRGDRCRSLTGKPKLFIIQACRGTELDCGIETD
# T2 sequence (P42574 176-277 limits assumed): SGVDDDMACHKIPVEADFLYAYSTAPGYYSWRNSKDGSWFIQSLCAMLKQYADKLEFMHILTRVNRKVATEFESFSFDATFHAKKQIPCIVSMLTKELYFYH
# Excerpt: as §1, §2, §3, §4, §5
# MCH-2 = biological target: T3, MCH-2 (Homo sapiens, UniProt P55212); assay: Dissociation constant Ki and irreversible rate constant k3 for irreversible inhibitors, Mch2
# T3 sequence (P55212 24-179 limits assumed): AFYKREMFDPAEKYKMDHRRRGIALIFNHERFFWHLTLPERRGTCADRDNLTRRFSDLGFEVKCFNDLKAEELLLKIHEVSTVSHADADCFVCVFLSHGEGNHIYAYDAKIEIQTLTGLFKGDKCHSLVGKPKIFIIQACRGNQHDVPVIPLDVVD
# T3 sequence (P55212 194-293 limits assumed): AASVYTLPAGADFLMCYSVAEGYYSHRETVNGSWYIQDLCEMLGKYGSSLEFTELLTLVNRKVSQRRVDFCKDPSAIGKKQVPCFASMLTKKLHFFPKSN
# Excerpt: as §1, §2, §3, §4, §5
# MCH-5 = MCH-5 (Homo sapiens, UniProt Q14790); assay: Dissociation constant Ki and irreversible rate constant k3 for irreversible inhibitors, Mch5
# Excerpt: as §1, §2, §3, §4, §5
# Sequence of MCH-5 (Q14790 217-374 limits assumed, species assumed): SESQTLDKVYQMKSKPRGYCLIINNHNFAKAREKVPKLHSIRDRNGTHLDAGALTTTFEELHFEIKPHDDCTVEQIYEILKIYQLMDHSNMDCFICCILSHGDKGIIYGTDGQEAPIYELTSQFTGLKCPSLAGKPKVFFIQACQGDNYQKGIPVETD
# Sequence of MCH-5 (Q14790 385-479 limits assumed, species assumed): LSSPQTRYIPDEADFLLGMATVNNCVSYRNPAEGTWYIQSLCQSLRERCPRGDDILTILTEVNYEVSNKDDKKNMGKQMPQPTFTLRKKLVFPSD
SMILES,Ki (mICE) [nM],mICE k3/Ki (mICE),CPP32 k3/Ki (CPP32),Ki (CPP32) [nM],Ki (MCH-2) [nM],MCH-2 k3/Ki (MCH-2),Ki (MCH-5) [nM],MCH-5 k3/Ki (MCH-5)
CC(C)[C@H](NC(=O)COc1cccc2ccccc12)C(=O)N[C@@H](CC(=O)O)C(=O)COC(=O)c1c(Cl)cccc1Cl [Example 63],79,"52,100 M^−1s^−1","725,000 M^−1s^−1",12,12,"56,900 M^−1s^−1",12,"17,000 M^−1s^−1"
CC(C)[C@H](NC(=O)COc1cccc2ccccc12)C(=O)N[C@@H](CC(=O)O)C(=O)COc1ccccc1F [Example 65],305,"6,020 M^−1s^−1","26,800 M^−1s^−1",102,336,0 M⁻¹ s⁻¹,354,230 M⁻¹ s⁻¹
CC(C)[C@H](NC(=O)COc1cccc2ccccc12)C(=O)N[C@@H](CC(=O)O)C(=O)COc1ccc(F)cc1 [Example 67],218,"9,120 M^−1s^−1","8,560 M^−1s^−1",33,203,0 M⁻¹ s⁻¹,255,700 M⁻¹ s⁻¹
CC(C)[C@H](NC(=O)COc1cccc2ccccc12)C(=O)N[C@@H](CC(=O)O)C(=O)COc1cccc(F)c1F [Example 68],355,"14,800 M^−1s^−1","28,800 M^−1s^−1",110,383,"1,610 M^−1s^−1",821,200 M⁻¹ s⁻¹
CC(C)[C@H](NC(=O)COc1cccc2ccccc12)C(=O)N[C@@H](CC(=O)O)C(=O)COc1ccc(F)cc1F [Example 69],615,"8,400 M^−1s^−1","21,700 M^−1s^−1",92,951,0 M⁻¹ s⁻¹,1300,630 M⁻¹ s⁻¹
CC(C)[C@H](NC(=O)COc1cccc2ccccc12)C(=O)N[C@@H](CC(=O)O)C(=O)COc1c(F)cccc1F [Example 71],193,"53,900 M^−1s^−1","200,000 M^−1s^−1",39,38,"9,980 M^−1s^−1",120,"9,100 M^−1s^−1"
CC(C)[C@H](NC(=O)COc1cccc2ccccc12)C(=O)N[C@@H](CC(=O)O)C(=O)COc1ccc(F)c(F)c1 [Example 72],718,"1,620 M^−1s^−1","6,460 M^−1s^−1",90,1160,90 M⁻¹ s⁻¹,1040,120 M⁻¹ s⁻¹
CC(C)[C@H](NC(=O)COc1cccc2ccccc12)C(=O)N[C@@H](CC(=O)O)C(=O)COc1cc(F)cc(F)c1 [Example 73],592,"2,170 M^−1s^−1","9,240 M^−1s^−1",106,862,110 M⁻¹ s⁻¹,1030,150 M⁻¹ s⁻¹
CC(C)[C@H](NC(=O)COc1cccc2ccccc12)C(=O)N[C@@H](CC(=O)O)C(=O)COc1ccc(F)c(F)c1F [Example 74],280,"11,900 M^−1s^−1","35,800 M^−1s^−1",135,1250,250 M⁻¹ s⁻¹,1080,770 M⁻¹ s⁻¹
CC(C)[C@H](NC(=O)COc1cccc2ccccc12)C(=O)N[C@@H](CC(=O)O)C(=O)COc1c(F)ccc(F)c1F [Example 76],90,"47,100 M^−1s^−1","188,000 M^−1s^−1",63,58,"81,700 M^−1s^−1",81,"17,000 M^−1s^−1"
CC(C)[C@H](NC(=O)COc1cccc2ccccc12)C(=O)N[C@@H](CC(=O)O)C(=O)COc1c(F)c(F)cc(F)c1F [Example 79],91,"77,500 M^−1s^−1","268,000 M^−1s^−1",42,6,"78,900 M^−1s^−1",34,"30,200 M^−1s^−1"

# The remaining compounds from weak to strong by Ki (mICE), led by results:
Ki (mICE) [nM],mICE k3/Ki (mICE),CPP32 k3/Ki (CPP32),Ki (CPP32) [nM],Ki (MCH-2) [nM],MCH-2 k3/Ki (MCH-2),Ki (MCH-5) [nM],MCH-5 k3/Ki (MCH-5),SMILES
926,"4,700 M^−1s^−1","56,600 M^−1s^−1",99,23,"13,600 M^−1s^−1",146,"8,040 M^−1s^−1",CC(C)[C@H](NC(=O)COc1cccc2ccccc12)C(=O)N[C@@H](CC(=O)O)C(=O)COc1c(F)c(F)c(F)c(F)c1F [Example 80]
442,"2,700 M^−1s^−1","17,800 M^−1s^−1",121,344,48 M⁻¹ s⁻¹,406,460 M⁻¹ s⁻¹,CC(C)[C@H](NC(=O)COc1cccc2ccccc12)C(=O)N[C@@H](CC(=O)O)C(=O)COc1cccc(F)c1 [Example 66]
399,"12,100 M^−1s^−1","49,000 M^−1s^−1",104,357,"1,330 M^−1s^−1",760,480 M⁻¹ s⁻¹,CC(C)[C@H](NC(=O)COc1cccc2ccccc12)C(=O)N[C@@H](CC(=O)O)C(=O)COc1cc(F)ccc1F [Example 70]
262,"3,630 M^−1s^−1","19,200 M^−1s^−1",62,153,"2,400 M^−1s^−1",235,"4,260 M^−1s^−1",CC(C)[C@H](NC(=O)COc1cccc2ccccc12)C(=O)N[C@@H](CC(=O)O)C(=O)COc1ccccc1 [Example 64]
262,"11,500 M^−1s^−1","24,400 M^−1s^−1",123,526,630 M⁻¹ s⁻¹,1500,670 M⁻¹ s⁻¹,CC(C)[C@H](NC(=O)COc1cccc2ccccc12)C(=O)N[C@@H](CC(=O)O)C(=O)COc1cc(F)c(F)cc1F [Example 77]
147,"14,700 M^−1s^−1","60,100 M^−1s^−1",61,221,"1,510 M^−1s^−1",794,"1,470 M^−1s^−1",CC(C)[C@H](NC(=O)COc1cccc2ccccc12)C(=O)N[C@@H](CC(=O)O)C(=O)COc1cc(F)cc(F)c1F [Example 75]
137,"20,700 M^−1s^−1","114,000 M^−1s^−1",38,81,"5,140 M^−1s^−1",202,"9,080 M^−1s^−1",CC(C)[C@H](NC(=O)COc1cccc2ccccc12)C(=O)N[C@@H](CC(=O)O)C(=O)COc1c(F)cc(F)cc1F [Example 78]
63,"143,000 M^−1s^−1","351,000 M^−1s^−1",38,38,"39,700 M^−1s^−1",25,"59,300 M^−1s^−1",CC(C)[C@H](NC(=O)COc1cccc2ccccc12)C(=O)N[C@@H](CC(=O)O)C(=O)COP(=O)(c1ccccc1)c1ccccc1 [Example 103]
